Where no end group is shown, it is not given here. [ ]: non-standard residue; d: D form. Gln(vinylogous ester) = glutamine whose side-chain carboxamide is replaced by a vinylogous ester electrophilic trap (CO2Et)
How the values were obtained:
[1] = target: T1, tissue transglutaminase (tTG) (Cavia cutleri, UniProt P08587); assay: tTG treatment of synthetic gluten peptides, deamidation determined by mass spectrometry; assay type: biochemical; settings: for deamidation of glutamine residues by tTG: peptide 500 μg/ml, tTG 100 μg/ml, 37° C., 4 h minimum, pH 6.5
T1 construct: purchased Sigma, Zwijndrecht, NL T-5398
T1 sequence (P08587 2-690 limits assumed): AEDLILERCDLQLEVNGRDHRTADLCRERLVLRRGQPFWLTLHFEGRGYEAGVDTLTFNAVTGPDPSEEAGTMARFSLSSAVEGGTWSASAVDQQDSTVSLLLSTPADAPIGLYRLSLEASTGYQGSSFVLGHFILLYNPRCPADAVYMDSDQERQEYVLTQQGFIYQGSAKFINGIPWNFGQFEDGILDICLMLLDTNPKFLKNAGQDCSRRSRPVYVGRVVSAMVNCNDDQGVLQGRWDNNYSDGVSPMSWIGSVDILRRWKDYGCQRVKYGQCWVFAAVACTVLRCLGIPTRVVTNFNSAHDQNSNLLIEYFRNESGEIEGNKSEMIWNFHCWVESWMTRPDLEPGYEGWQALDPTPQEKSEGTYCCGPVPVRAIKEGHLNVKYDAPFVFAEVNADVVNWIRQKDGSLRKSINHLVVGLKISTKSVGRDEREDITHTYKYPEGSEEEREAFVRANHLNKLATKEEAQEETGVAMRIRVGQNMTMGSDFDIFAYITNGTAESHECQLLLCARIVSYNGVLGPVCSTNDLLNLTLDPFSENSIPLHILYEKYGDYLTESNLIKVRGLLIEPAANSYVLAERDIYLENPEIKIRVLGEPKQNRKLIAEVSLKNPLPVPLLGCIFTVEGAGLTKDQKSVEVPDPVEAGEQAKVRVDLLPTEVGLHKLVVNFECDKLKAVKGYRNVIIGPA
Method: (§1) Peptides and tTG treatment. Peptides were synthesised by standard Fmoc chemistry on a multiple peptide synthesizer (SyroII, MultiSynTech GmbH, Witten, Germany). Integrity of synthetic peptides was checked by rpHPLC and mass spectrometry. Tissue transglutaminase (tTG) treatment was performed by incubating the peptides (500 μg/ml) with the enzyme (100 μg/ml, Sigma, Zwijndrecht, NL; T-5398) at 37° C. for 4 h minimum, in 50 mM triethylamine-acetate pH 6.5, 2 mM CaCl2.
(§2) Mass spectrometry. Electrospray ionisation mass spectrometry was performed on the synthetic gluten peptides before and after tTG treatment, using a Q-TOF hybrid mass spectrometer (Micromass, Manchester, UK). Precursor ions were selected with the quadrupole window set to 3 Da and fragments were collected with high efficiency with the orthogonal time of flight mass spectrometer. The collision gas applied was argon (pressure 4×10^−5 mbar) and the collision voltage approximately 30 V. Deamidation of glutamine residues in synthetic gluten peptides was determined by mass spectrometric analysis as described previously (van de Wal, 1998a). Deamidation of a glutamine residue results in an increase of 1 Da. These conversions were assigned to particular glutamine residues by comparison of the fragmentation spectra of tTG treated and non-treated peptides.

[2] = tested on: gluten specific T cell lines; assay: T cell proliferation assay with gluten specific T cell lines; assay type: cell-based, human; settings: T cell line from small intestinal biopsy of celiac disease patient; antigen 1-10 μg/ml; positive = Stimulation Index>3
Method: T cell clones T cell lines. Gluten specific T cell lines were generated from small intestinal biopsies of celiac disease patients as described before (van de Wal, 1998a).
T cell proliferation assays. Proliferation assays were performed in duplicate in 150 μl RPMI1640 (Gibco, Breda, NL) supplemented with 10% human serum in 96-well flat-bottomed plates (Falcon) using 10^4 T cells stimulated with 10^5 irradiated PBMCs (3000 RAD) in the presence or absence of antigen (1-10 μg/ml). After 48 hours at 37° C., cultures were pulsed with 0.5 μCi of ^3H-thymidine and harvested 18 hours thereafter as described previously (van de Wal, 1998b).

[3] = target: T1, tissue transglutaminase (tTG); settings: earlier publications (van de Wal 1998a; Arentz-Hansen 2000); cited from earlier work
[4] = target: T1, tissue transglutaminase (tTG); assay: Inhibition of tTG induced deamidation of a substrate gluten peptide, mass spectrometric analysis; assay type: biochemical
Method: as §1, §2

[5] = tested on: gluten specific T cell lines; settings: Arentz-Hansen 2000; Anderson 2000; cited from earlier work
[6] = tTG-treated synthetic gluten peptide, mass spectrometry

**Q.** For PFSQQQQPV, which “deamidation of glutamine residues by tTG” value [1] is on record?
**A.** The value was “specifically and efficiently deamidated”.

**Q.** For PSGQ208GSFQPSQQ216N, which “deamidation of glutamine residues by tTG” value [1] is on record?
**A.** Its value is “only the Q208 is deamidated”.

**Q.** For PFPQSQQPQQPFPQ [gluten-derived peptide], which “stimulation of gluten specific T cell lines (proliferation)” value (shortened to “stimulation”) [2] is on record?
**A.** The value was “stimulate gluten specific T cell lines”.

**Q.** What does the source list for “9: gluten peptide FPQHCNYQ[Q]QPQTFPQPF; [Q] = image character, presumably deamidated Q [Peptide 9]”?
**A.** Rules QP ↓ (share of Q residues following the rule: Q preceding P not deamidated) [1, 6]: 100%; Rules QXP ↑ (share of Q residues following the rule: P at Q+2 allows deamidation) [1, 6]: 100%; Rules QXXP ↓ (share of Q residues following the rule: P at Q+3 inhibits deamidation) [1, 6]: 100%

**Q.** For QQPFPQQPQQPFPQ [gluten-derived peptide], which “stimulation” value [2] is on record?
**A.** Its value is “stimulate gluten specific T cell lines”.

**Q.** For PSGQ208GSFQPSQQ216NPQA, which “deamidation of glutamine residues by tTG / tTG substrate” value [3] is on record?
**A.** The value was “Q208 and Q216 are deamidated by tTG, whereas positions Q212, Q215, and Q219 are not”.

**Q.** Which “stimulation” value [2] does the source give for QFPQTQQPQQPFPQ [gluten-derived peptide] here?
**A.** The value was “stimulate gluten specific T cell lines”.

**Q.** Which results are given for “first-generation inhibitor: biotinylated QPQLPYQ in which the carboxamide of glutamine at position 3 is replaced by a vinylogous ester electrophilic trap (CO2Et, FIG. 3) (QP[Gln(vinylogous ester)]LPYQ; also: biotinylated)”?
**A.** enzyme activity ([4]; 0.3 molar ratio of enzyme to inhibitor): completely abolished; inhibition of deamidation of a substrate peptide ([4]; inhibitor mixed with the enzyme in an equimolar ratio): over 50%

**Q.** Which “deamidation of glutamine residues by tTG / tTG substrate” value [3] does the source give for QPQLPYPQ here?
**A.** The value was “known to be a tTG substrate”.

**Q.** For PFPQTQQPQQPFPQ [gluten-derived peptide], which “stimulation” value [2] is on record?
**A.** The value was “stimulate gluten specific T cell lines”.

**Q.** Which “T cell stimulatory activity in celiac disease patients” value [5] does the source give for QLQPFPQPQLPY here?
**A.** Its value is “immunodominant”.

**Q.** Which “stimulation” value [2] does the source give for QLPFPQQPQQPFPQ [gluten-derived peptide] here?
**A.** Its value is “stimulate gluten specific T cell lines”.

**Q.** For QQPYPQQPQQPFPQ [gluten-derived peptide], which “stimulation” value [2] is on record?
**A.** Its value is “stimulate gluten specific T cell lines”.

**Q.** Which results are given for LQQPQQ6PQFQPQQQF [Peptide 20]?
**A.** Rules QP ↓ (share of Q residues following the rule: Q preceding P not deamidated) [1, 6]: 100%; Rules QXP ↑ (share of Q residues following the rule: P at Q+2 allows deamidation) [1, 6]: 50%; Rules QXXF ↑ (share of Q residues following the rule: bulky/hydrophobic residue at Q+3 allows deamidation) [1, 6]: 50%^; Rules QXXP ↓ (share of Q residues following the rule: P at Q+3 inhibits deamidation) [1, 6]: 100%

**Q.** Which “stimulation” value [2] does the source give for PFPQPQQPQQPFPQ [gluten-derived peptide] here?
**A.** Its value is “stimulate gluten specific T cell lines”.

**Q.** Which “deamidation of glutamine residues by tTG” value [1] does the source give for PFSQQQQLVL here?
**A.** The value was “all Q-residues are deamidated”.

**Q.** With PFPQLQQPQQPFPQ [gluten-derived peptide] as the substance, how does the “stimulation” value [2] read?
**A.** The value was “stimulate gluten specific T cell lines”.

Reference: patent US20050244823A1, “Novel epitopes for celiac disease and autoimmune diseases, methods for detecting those and novel non-antigenic food compounds” (Academisch Ziekenhuis Leiden, priority 2002, published 2005)
